In patent US7449495B2, “Retinoid derivatives with antiangiogenic, antitumoral and proapoptotic activities” (Sigma-Tau Industrie Farmaceutiche Riunite S.p.A., priority 2001, dated 2008):

What was measured:
[1] = tested on: M109 murine lung carcinoma cells; test: Cytotoxicity in combination with TRAIL, M109; type: cell-based; settings: M109, 72 hours, value >1 synergism (FIG. 2)
Method: FIG. 2 is a graph showing the interaction between ST1926 and TRAIL in M109 murine lung carcinoma cells at different concentrations of TRAIL.
A study of cytotoxicity of ST1926 in combination with TRAIL was performed in two different tumor cell lines such as M109 murine lung carcinoma and A2780/Dx multidrug-resistant human ovarian carcinoma. Cells were maintained in RPMI 1640 medium containing 10% FCS, 1% sodium pyruvate and 1% glutamine.
The cells were seeded in a volume of 250 μl in 96 well plates and incubated for 24 hours at 37° C. The following day, test compound ST 1926 [(2E)-3-[3′-(1-Adamantyl)-4′-hydroxy[1,1′-biphenyl]-4-yl]-2-propenoate/ic acid] or TRAIL were added at increasing concentrations, and the cells were incubated for a further 72 hours at 37° C. in a humidified atmosphere containing 5% CO2. On the 5th day, the supernatant was removed by upturning the plates. 200 μl of PBS and 50 μl of cold, 80% TCA were added. The plates were then left to incubate on ice for at least 1 hour. The TCA was removed by upturning; the plates were washed three times by immersion in distilled water and dried first on paper, then with a jet of hot air. […] The optical density was measured using a Multiskan spectrophotometer at 540 nm.
The interaction between ST1926 and TRAIL was determined by using the analysis of Drewinko et al. (Cancer Biochem. Biophys. 1: 187-195, 1976). […]

[2] = tested on: Human prostate carcinoma DU145; test: Cytotoxicity test (sulphorodamine B), DU145; type: cell-based; settings: DU-145, 24 h incubation, survival 48 h after removal
Description: (§1) Different cell lines deriving from solid tumors were also used. • 1. Human prostate carcinoma PC3 and DU145. These cell lines were maintained in RPMI 1640 medium containing 10% FCS, 1% sodium pyruvate and 1% glutamine; • 2. Human colon adenocarcinoma LoVo. This cell line was maintained in HAM's F-12 medium, containing 10% FCS and 1% glutamine. • 3. Human ovarian carcinoma such as A2780 and A2780/Dx, sensitive and resistant to drugs, respectively (doxorubicin, taxol, etoposide, vincristine); IGROV-1 and IGROV-1/Pt, sensitive and resistant to platinum-based chemotherapy, respectively, were maintained in RPMI 1640 medium containing 10% FCS, 1% sodium pyruvate and 1% glutamine; • 4. Human melanoma MeWo and MeS 2.21, glioblastoma GBM, no small cell lung carcinomas A431, NCI—H460, osteosarcomas SAOS and U2OS were maintained in RPMI 1640 medium containing 10% FCS, 1% sodium pyruvate and 1% glutamine.
(§2) The cytotoxicity tests were carried out using NB4 or HL-60 cells in suspension (10000/well). The cells were seeded in a volume of 250 μl in 96 well plates and incubated for 24 hours at 37° C. […] The optical density was measured using a Multiskan spectrophotometer at 540 nm. […]
(§3) Cell survival was determined by incubation with ST1926 for 24 hours, 48 hours after the removal of the compound. […]

osteosarcoma SAOS = test: Cytotoxicity test (sulphorodamine B), SAOS; type: cell-based; settings: Homo sapiens, 24 h incubation, survival 48 h after removal
Description: as §1, §2, §3

BMEC cells = test: Endothelial BMEC cells chemotaxis (Boyden chamber); type: cell-based, bovine; settings: 50 and 25 μM
Method: The capacity of ST1879 to inhibit cellular migration through the polycarbonate filter in the direction of the chemoattractant factor, was quantitatively evaluated by counting the number of cells present on the lower side of the filter. The percentages of migration reported in table 8 were calculated according to the formula: (treated−control/control)×100.

osteosarcoma U2OS = test: Cytotoxicity test (sulphorodamine B), U2OS; type: cell-based; settings: Homo sapiens, 24 h incubation, survival 48 h after removal
Description: as §1, §2, §3

O=C(O)/C=C/c1ccc(-c2ccc(O)c(C34CC5CC(CC(C5)C3)C4)c2)cc1 [ST1926, E-4-(3-(1-adamantyl)-4-hydroxyphenyl)cinnamic acid]
interaction between ST1926 and TRAIL (analysis of Drewinko et al.) [1]: synergic activity
IC50 [2]: 0.1 µM
IC50 (osteosarcoma SAOS): 0.25 µM
chemotaxis of the BMEC cells towards FCS (in words) (BMEC cells): inhibition of chemotaxis
IC50 (osteosarcoma U2OS): 0.26 µM
